Test results from patent EP4725956A1, “MODIFIED POLYPEPTIDE AND USE THEREOF IN FIELD OF ANALGESIA” (Nanjing Anji Biotechnology Co., Ltd., priority 2023, dated 2024).
Positions of bridges follow the written chain, without caps; N, C: chain ends. Non-standard residues stand in square brackets, D forms with d. Residues, ends and D or L forms follow the SMILES beside them. Bip = N[C@@H](Cc1ccc(-c2ccccc2)cc1)C(=O)O; Hyp = O=C(O)[C@@H]1C[C@@H](O)CN1; Nle = CCCC[C@H](N)C(=O)O; Orn = NCCC[C@H](N)C(=O)O; Aib = CC(C)(N)C(=O)O

Columns and labels:
rat CCI model = assay: Rat CCI (chronic constriction injury) model (Example 9); type: in vivo
Description: Neuropathic pain has many types, and animal models can simulate clinical neuropathic pain. Common SD rat sciatic nerve neuropathic pain models include CCI (Chronic Constriction Injury), SNI (Spared Nerve Injury), SNL (Spinal Nerve Ligation), and CCD (using stainless steel wire through the intervertebral foramen to fix and compress the dorsal root ganglion). Among them, the CCI model is widely used to study neuropathic pain, providing a basis for further research on mechanisms and strategies for nerve injury repair (Wen Xiaojun, Medical Information, Jan. 2018, Vol. 31, No.1). In this example, the CCI model was employed.
Except for the control group, the remaining SD rats were anesthetized via intraperitoneal injection of 10% chloral hydrate saline solution at a dose of 0.3 mL per 100 g body weight, and surgical modeling was performed. The right hind limb skin was carefully incised, muscles were separated, and the sciatic nerve was ligated three times using 4-0 surgical silk, spaced 1 mm apart. Muscles and skin were sutured, and antibiotics were applied to the wound to prevent infection. […] Approximately 10 days post-surgery, plantar pain thresholds were measured three times for each rat, and the average value was calculated. Rats were randomly assigned to groups based on pain thresholds. Drug administration was performed according to Table 8, and plantar pain thresholds were measured at 2 h, 4 h, 6 h, and 8 h after administration.

[1] = tested on: mouse oxaliplatin-induced acute chemotherapy pain model; assay: Mouse oxaliplatin chemotherapy pain model, different doses (Example 7); type: in vivo
Procedure: Oxaliplatin was dissolved in 5% glucose solution to a concentration of 1 mg/mL. For model induction, each male C57 mouse (Hangzhou Ziyuan Experimental Animal Technology Co., Ltd.) received a single intraperitoneal injection of oxaliplatin at 10 mg/kg. Mice in the negative control or blank control group received 5% glucose solution. Approximately one week after model induction, mechanical pain thresholds of the mice were measured three times per mouse, and the average value was calculated. Mice were then randomly assigned to groups based on their pain thresholds. Drug administration was carried out according to the dosing schedule shown in Table 6, with a single dose per mouse. Mechanical pain thresholds were measured at 0.5, 1, 2, 4, 6, and 8 h post-dose. […] Table 6 Dosing Scheme for Oxaliplatin Chemotherapy Pain Model

[2] = In vitro plasma stability and predicted half-life (HPLC main peak area, Example 3); type: in vitro ADME; details: human plasma (EDTA anticoagulant), 37°C, sampled up to 24 h, predicted half-life calculated with Winolin
Summary of the method: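 Peptides (10 mg in 5 mL human EDTA plasma) incubated at 37°C, sampled from 0 min up to 24 h. Samples quenched with acetonitrile, centrifuged and analysed by HPLC for main peak area; in vitro half-life predicted from peak-area decline by pharmacokinetic fitting.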

For `CCCC[C@H](NC(=O)[C@@H](NC(=O)[C@H]1CSSC[C@H](NC(=O)[C@H](CO)NC(=O)CN)C(=O)N[C@@H](CO)C(=O)N[C@H]([C@H](C)O)C(=O)N2C[C@H](O)C[C@H]2C(=O)N2C[C@H](O)C[C@H]2C(=O)NC(C)(C)C(=O)N1)C(C)C)C(=O)N[C@@H](Cc1ccc(-c2ccccc2)cc1)C(=O)N[C@@H](CCCN)C(N)=O` [AJ003-36, GSCS-(D-Thr)-Hyp-Hyp-Aib-(D-Cys)-V-Nle-Bip-Orn-NH2 (3,9 disulfide bond)] (H-GSCS[dT][Hyp][Hyp][Aib][dC]V[Nle][Bip][Orn]-NH2; disulfide 3-9), the “analgesic activity compared with the model group (mechanical pain threshold)” value (rat CCI model; Day 1 of dosing, 2 h and 4 h, 0.5 mg/kg s.c. (low dose)) was “significant analgesic activity”, the “analgesic activity compared with the model group (mechanical pain threshold)” value (rat CCI model; Day 1 of dosing, 2 h and 4 h, 1 mg/kg s.c. (AJ003; AJ003-36 medium dose)) was “significant analgesic activity” and the “analgesic activity compared with the model group (mechanical pain threshold)” value (rat CCI model; Day 1 of dosing, 2 h and 4 h, 2 mg/kg s.c. (high dose)) was “significant analgesic activity”. The “analgesic activity compared with the model group (mechanical pain threshold)” value (rat CCI model; Day 1 of dosing, 6 h, 0.5 mg/kg s.c. (low dose)) was “significant analgesic activity”, the “analgesic activity compared with the model group (mechanical pain threshold)” value (rat CCI model; Day 1 of dosing, 6 h, 1 mg/kg s.c. (AJ003; AJ003-36 medium dose)) was “significant analgesic activity” and the “analgesic activity compared with the model group (mechanical pain threshold)” value (rat CCI model; Day 1 of dosing, 6 h, 2 mg/kg s.c. (high dose)) was “significant analgesic activity”. For the same molecule, the “analgesic activity compared with the model group (mechanical pain threshold)” value (rat CCI model; Day 1 of dosing, 8 h, 0.5 mg/kg s.c. (low dose)) was “not significantly different”, the “analgesic activity compared with the model group (mechanical pain threshold)” value (rat CCI model; Day 1 of dosing, 8 h, 1 mg/kg s.c. (AJ003; AJ003-36 medium dose)) was “significant analgesic activity” and the “analgesic activity compared with the model group (mechanical pain threshold)” value (rat CCI model; Day 1 of dosing, 8 h, 2 mg/kg s.c. (high dose)) was “significant analgesic activity”. The “analgesic activity compared with the model group (mechanical pain threshold)” value (rat CCI model; Day 4 of dosing, 2 h and 4 h, 0.5 mg/kg s.c. (low dose)) was “significant analgesic activity”, the “analgesic activity compared with the model group (mechanical pain threshold)” value (rat CCI model; Day 4 of dosing, 2 h and 4 h, 1 mg/kg s.c. (AJ003; AJ003-36 medium dose)) was “significant analgesic activity” and the “analgesic activity compared with the model group (mechanical pain threshold)” value (rat CCI model; Day 4 of dosing, 2 h and 4 h, 2 mg/kg s.c. (high dose)) was “significant analgesic activity”. The “analgesic activity compared with the model group (mechanical pain threshold)” value (rat CCI model; Day 4 of dosing, 6 h and 8 h, 0.5 mg/kg s.c. (low dose)) was “no longer significant”, the “analgesic activity compared with the model group (mechanical pain threshold)” value (rat CCI model; Day 4 of dosing, 6 h and 8 h, 1 mg/kg s.c. (AJ003; AJ003-36 medium dose)) was “remained significant” and the “analgesic activity compared with the model group (mechanical pain threshold)” value (rat CCI model; Day 4 of dosing, 6 h and 8 h, 2 mg/kg s.c. (high dose)) was “remained significant”. For the same molecule, the “analgesic activity compared with the model group (mechanical pain threshold)” value (rat CCI model; Day 7 of dosing, 2 h and 4 h, 0.5 mg/kg s.c. (low dose)) was “significant analgesic activity”, the “analgesic activity compared with the model group (mechanical pain threshold)” value (rat CCI model; Day 7 of dosing, 2 h and 4 h, 1 mg/kg s.c. (AJ003; AJ003-36 medium dose)) was “significant analgesic activity” and the “analgesic activity compared with the model group (mechanical pain threshold)” value (rat CCI model; Day 7 of dosing, 2 h and 4 h, 2 mg/kg s.c. (high dose)) was “significant analgesic activity”. The “analgesic activity compared with the model group (mechanical pain threshold)” value (rat CCI model; Day 7 of dosing, 6 h, 0.5 mg/kg s.c. (low dose)) was “still significant”, the “analgesic activity compared with the model group (mechanical pain threshold)” value (rat CCI model; Day 7 of dosing, 6 h, 1 mg/kg s.c. (AJ003; AJ003-36 medium dose)) was “still significant” and the “analgesic activity compared with the model group (mechanical pain threshold)” value (rat CCI model; Day 7 of dosing, 6 h, 2 mg/kg s.c. (high dose)) was “still significant”. For the same molecule, the “analgesic activity compared with the model group (mechanical pain threshold)” value (rat CCI model; Day 7 of dosing, 8 h, 0.5 mg/kg s.c. (low dose)) was “not significant”, the “analgesic activity compared with the model group (mechanical pain threshold)” value (rat CCI model; Day 7 of dosing, 8 h, 1 mg/kg s.c. (AJ003; AJ003-36 medium dose)) was “remained significant” and the “analgesic activity compared with the model group (mechanical pain threshold)” value (rat CCI model; Day 7 of dosing, 8 h, 2 mg/kg s.c. (high dose)) was “remained significant”. For the same molecule, the “analgesic activity compared with the model group (mechanical pain threshold)” value (rat CCI model; Day 10 of dosing, 2 h and 4 h, 0.5 mg/kg s.c. (low dose)) was “significant analgesic activity”, the “analgesic activity compared with the model group (mechanical pain threshold)” value (rat CCI model; Day 10 of dosing, 2 h and 4 h, 1 mg/kg s.c. (AJ003; AJ003-36 medium dose)) was “significant analgesic activity” and the “analgesic activity compared with the model group (mechanical pain threshold)” value (rat CCI model; Day 10 of dosing, 2 h and 4 h, 2 mg/kg s.c. (high dose)) was “significant analgesic activity”. For the same molecule, the “analgesic activity compared with the model group (mechanical pain threshold)” value (rat CCI model; Day 10 of dosing, 6 h, 0.5 mg/kg s.c. (low dose)) was “remained significant”, the “analgesic activity compared with the model group (mechanical pain threshold)” value (rat CCI model; Day 10 of dosing, 6 h, 1 mg/kg s.c. (AJ003; AJ003-36 medium dose)) was “remained significant” and the “analgesic activity compared with the model group (mechanical pain threshold)” value (rat CCI model; Day 10 of dosing, 6 h, 2 mg/kg s.c. (high dose)) was “remained significant”. For the same molecule, the “analgesic activity compared with the model group (mechanical pain threshold)” value (rat CCI model; Day 10 of dosing, 8 h, 0.5 mg/kg s.c. (low dose)) was “not significant”, the “analgesic activity compared with the model group (mechanical pain threshold)” value (rat CCI model; Day 10 of dosing, 8 h, 1 mg/kg s.c. (AJ003; AJ003-36 medium dose)) was “remained significant” and the “analgesic activity compared with the model group (mechanical pain threshold)” value (rat CCI model; Day 10 of dosing, 8 h, 2 mg/kg s.c. (high dose)) was “remained significant”. For the same molecule, the “analgesic activity compared with the model group (mechanical pain threshold)” value (rat CCI model; Day 14 of dosing, 2 h and 4 h, 0.5 mg/kg s.c. (low dose)) was “significant analgesic activity”, the “analgesic activity compared with the model group (mechanical pain threshold)” value (rat CCI model; Day 14 of dosing, 2 h and 4 h, 1 mg/kg s.c. (AJ003; AJ003-36 medium dose)) was “significant analgesic activity” and the “analgesic activity compared with the model group (mechanical pain threshold)” value (rat CCI model; Day 14 of dosing, 2 h and 4 h, 2 mg/kg s.c. (high dose)) was “significant analgesic activity”. For the same molecule, the “analgesic activity compared with the model group (mechanical pain threshold)” value (rat CCI model; Day 14 of dosing, 6 h, 0.5 mg/kg s.c. (low dose)) was “remained significant”, the “analgesic activity compared with the model group (mechanical pain threshold)” value (rat CCI model; Day 14 of dosing, 6 h, 1 mg/kg s.c. (AJ003; AJ003-36 medium dose)) was “remained significant” and the “analgesic activity compared with the model group (mechanical pain threshold)” value (rat CCI model; Day 14 of dosing, 6 h, 2 mg/kg s.c. (high dose)) was “remained significant”. The “analgesic activity compared with the model group (mechanical pain threshold)” value (rat CCI model; Day 14 of dosing, 8 h, 0.5 mg/kg s.c. (low dose)) was “not significant”, the “analgesic activity compared with the model group (mechanical pain threshold)” value (rat CCI model; Day 14 of dosing, 8 h, 1 mg/kg s.c. (AJ003; AJ003-36 medium dose)) was “remained significant” and the “analgesic activity compared with the model group (mechanical pain threshold)” value (rat CCI model; Day 14 of dosing, 8 h, 2 mg/kg s.c. (high dose)) was “remained significant”. For the same molecule, the “analgesic activity compared with the model group (mechanical pain threshold)” value ([1]; single dose, 0.5, 1, 2 and 4 h post-dose, 1 mg/kg s.c. (low dose)) was “significant analgesic activity”, the “analgesic activity compared with the model group (mechanical pain threshold)” value ([1]; single dose, 0.5, 1, 2 and 4 h post-dose, 2 mg/kg s.c. (AJ003; AJ003-36 medium dose)) was “significant analgesic activity” and the “analgesic activity compared with the model group (mechanical pain threshold)” value ([1]; single dose, 0.5, 1, 2 and 4 h post-dose, 3 mg/kg s.c. (high dose)) was “significant analgesic activity”. The “analgesic activity compared with the model group (mechanical pain threshold)” value ([1]; single dose, 6 h post-dose, 1 mg/kg s.c. (low dose)) was “significant analgesic activity”, the “analgesic activity compared with the model group (mechanical pain threshold)” value ([1]; single dose, 6 h post-dose, 2 mg/kg s.c. (AJ003; AJ003-36 medium dose)) was “significant analgesic activity” and the “analgesic activity compared with the model group (mechanical pain threshold)” value ([1]; single dose, 6 h post-dose, 3 mg/kg s.c. (high dose)) was “significant analgesic activity”. The “analgesic activity compared with the model group (mechanical pain threshold)” value ([1]; single dose, 8 h post-dose, 1 mg/kg s.c. (low dose)) was “no significant effect”, the “analgesic activity compared with the model group (mechanical pain threshold)” value ([1]; single dose, 8 h post-dose, 2 mg/kg s.c. (AJ003; AJ003-36 medium dose)) was “significant analgesic activity” and the “analgesic activity compared with the model group (mechanical pain threshold)” value ([1]; single dose, 8 h post-dose, 3 mg/kg s.c. (high dose)) was “significant analgesic activity”. The half-life at 2 mg/mL [2] was 65.3 h.
